Assay results from patent publication US6620828B2, “Thiazole compounds and pharmaceutical compositions for inhibiting protein kinases and methods for their use” (Agouron Pharmaceuticals, Inc., priority 1999, dated 2003).

Tests used:
CDK2/Cyclin A complex = CDK2/Cyclin A complex (Homo sapiens, UniProt P24941); assay: CDK2/Cyclin A assay; assay type: biochemical; parameters: CDK2^c: concentration or dose not given beside the values; conditions: Table A combinatorial examples; footnote c not given
Description: CDK2/Cyclin A Construct for Assay: CDK2 was purified using published methodology (Rosenblatt et al., J. Mol. Biol., 230, 1317-1319 (1993)) from insect cells that had been infected with a baculovirus expression vector. Cyclin A was purified from E. coli cells expressing full-length recombinant cyclin A, and a truncated cyclin A construct was generated by limited proteolysis and purified as described previously (Jeffrey et al., Nature, 376, 313-320 (Jul. 27, 1995)).
CDK2/Cyclin A and CDK4/Cyclin D Assays
Cyclin-dependent kinase activity was measured by quantifying the enzyme-catalyzed, time-dependent incorporation of radioactive phosphate from [^32P]ATP into a recombinant fragment of the retinoblastoma protein. Unless noted otherwise, assays were performed in 96-well plates in a total volume of 50 μL, in the presence of 10 mM HEPES (N-[2-hydroxyethyl]piperazine-N′-[2-ethanesulfonic acid]) (pH 7.4), 10 mM MgCl2, 25 μM adenosine triphosphate (ATP), 1 mg/mL ovalbumin, 5 μg/mL leupeptin, 1 mM dithiothreitol, 10 mM β-glycerophosphate, 0.1 mM sodium vanadate, 1 mM sodium fluoride, 2.5 mM ethylene glycol-bis(β-aminoethyl ether)-N,N,N′N′-tetraacetic acid (EGTA), 2% (v/v) dimethylsulfoxide, and 0.03-0.2 μCi [^32P]ATP. The substrate (0.3-0.5 μg) was purified recombinant retinoblastoma protein fragment (Rb) (residues 386-928 of the native retinoblastoma protein; 62.3 kDa, containing the majority of the phosphorylation sites found in the native 106-kDa protein, as well as a tag of six histidine residues for ease of purification). Reactions were initiated with CDK2 (150 nM CDK2/Cyclin A complex) or CDK4 (50 nM CDK4/Cyclin D3 complex), incubated at 30° C., and terminated after 20 minutes by the addition of ethylenediaminetetraacetic acid EDTA) to 250 mM. The phosphorylated substrate was then captured on a nitrocellulose membrane using a 96-well filtration manifold, and unincorporated radioactivity was removed by repeated washing with 0.85% phosphoric acid. Radioactivity was quantified by exposing the dried nitrocellulose membranes to a phosphorimager. Apparent Ki values were measured by assaying enzyme activity in the presence of different compound concentrations and subtracting the background radioactivity measured in the absence of enzyme. The kinetic parameters (kcat, Km for ATP) were measured for each enzyme under the usual assay conditions by determining the dependence of initial rates on ATP concentration. The data were fit to an equation for competitive inhibition using Kaleidagraph (Synergy Software), or were fit to an equation for competitive tight-binding inhibition using the software KineTic (BioKin, Ltd.). Measured Ki values for known inhibitors against CDK4 and CDK2 agreed with published IC50 values. The specific activity of CDK4 was the same whether complexed to full-length cyclin D3 or the truncated Cyclin D3 construct; both complexes also yielded very similar Ki values for selected inhibitors.

FL-CHK1 = target: T1, FL-CHK1 (Homo sapiens, UniProt O14757); assay: CHK1 assay; assay type: biochemical; parameters: CHK1^b: unit not given here; conditions: Table A combinatorial examples; footnote b not given
T1 construct: C-terminally His-tagged full-length human CHK1 (FL-CHK1); 6xHis (C); made in house; host or cells: baculovirus/insect cells
T1 sequence (O14757 1-476): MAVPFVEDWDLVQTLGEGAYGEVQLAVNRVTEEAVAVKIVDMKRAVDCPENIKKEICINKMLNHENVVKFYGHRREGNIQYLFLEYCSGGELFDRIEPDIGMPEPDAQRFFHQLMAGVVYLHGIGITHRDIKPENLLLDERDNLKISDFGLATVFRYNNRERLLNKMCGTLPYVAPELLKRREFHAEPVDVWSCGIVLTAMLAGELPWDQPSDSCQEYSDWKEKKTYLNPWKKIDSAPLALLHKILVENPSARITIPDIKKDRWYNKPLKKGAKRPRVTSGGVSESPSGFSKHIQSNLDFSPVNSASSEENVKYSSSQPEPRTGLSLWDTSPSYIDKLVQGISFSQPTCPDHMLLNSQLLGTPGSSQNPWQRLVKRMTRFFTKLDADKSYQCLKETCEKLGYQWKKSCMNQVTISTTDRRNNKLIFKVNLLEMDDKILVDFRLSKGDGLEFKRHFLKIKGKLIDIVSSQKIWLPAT
Description: CHK-1 Construct for Assay: C-terminally His-tagged full-length human CHK1 (FL-CHK1) was expressed using the baculovirus/insect cell system. It contains 6 histidine residues (6×His-tag) at the C-terminus of the 476 amino acid human CHK1. The protein was purified by conventional chromatographic techniques.
The production of ADP from ATP that accompanies phosphoryl transfer to the synthetic substrate peptide Syntide-2 ([…]) was coupled to oxidation of NADH using phosphoenolpyruvate (PEP) through the actions of pyruvate kinase (PK) and lactic dehydrogenase (LDH). The oxidation of NADH was monitored by following the decrease of absorbance at 340 nm (ε340=6.22 cm^−1 mM^−1) using a HP8452 spectrophotometer. Typical reaction solutions contained: […]; 0.15 mM NADH; 28 units of LDH/ml; 16 units of PK/ml; 3 mM DTT; 0.125 mM Syntide-2; 0.15 mM ATP; 25 mM MgCl2 in 50 mM TRIS, pH 7.5; and 400 mM NaCl. Assays were initiated with 10 nM of FL-CHK1. Ki values were determined by measuring initial enzyme activity in the presence of varying concentrations of test compounds. The data were analyzed using Enzyme Kinetic and Kaleidagraph software.

| SMILES | CDK2^c (CDK2/Cyclin A complex) | CHK1^b (FL-CHK1) |
| --- | --- | --- |
| COc1cc(Nc2nc(N)c(-c3nc(-c4ccc5ccccc5c4)cs3)s2)cc2c1OCCO2 | 11.6 | 9.2 |
| COc1cc(Nc2nc(N)c(-c3nc(-c4cc(Br)c(Cl)s4)cs3)s2)cc(OC)c1OC | −0.2 | 32 |
| COc1cc(Nc2nc(N)c(-c3nc(-c4ccc(-c5ccc(Cl)cc5Cl)o4)cs3)s2)cc(OC)c1OC | 12.4 | 23 |
| COc1ccccc1-c1csc(-c2sc(Nc3cc(OC)c(OC)c(OC)c3)nc2N)n1 | −3.5 | 20 |
| COc1cc(Nc2nc(N)c(-c3nc(-c4ccc(C)cc4)cs3)s2)cc(OC)c1OC | −2.1 | 3.7 |
| COc1ccc(-c2csc(-c3sc(Nc4cc(OC)c(OC)c(OC)c4)nc3N)n2)c(OC)c1 | 4.9 | 9.9 |
| COc1cc(Nc2nc(N)c(-c3nc(-c4ccc(Cl)cc4)cs3)s2)cc(OC)c1OC | 0.1 | 11.2 |
| COc1ccc(OC)c(-c2csc(-c3sc(Nc4cc(OC)c(OC)c(OC)c4)nc3N)n2)c1 | 12.2 | 6.1 |
| CCOC(=O)c1cc(-c2csc(-c3sc(Nc4cc(OC)c(OC)c(OC)c4)nc3N)n2)on1 | 23.2 | 2.7 |
| COc1cc(Nc2nc(N)c(-c3nc(-c4ccccc4[N+](=O)O)cs3)s2)cc(OC)c1OC | 1.9 | 36.6 |
| COc1cc(Nc2nc(N)c(-c3nc(-c4ccc([N+](=O)[O-])cc4)cs3)s2)cc(OC)c1OC | −14.4 | 15.2 |
| COc1cc(Nc2nc(N)c(-c3nc(-c4ccc(Cl)c(C)c4)cs3)s2)cc(OC)c1OC | −4.4 | 11.7 |
| COc1cc(Nc2nc(N)c(-c3nc(-c4ccc(-c5ccccc5)cc4)cs3)s2)cc(OC)c1OC | 20.4 | 18.7 |
| COc1cc(Nc2nc(N)c(-c3nc(-c4ccc(C#N)cc4)cs3)s2)cc(OC)c1OC | 15.6 | 10.3 |
| COc1cc(Nc2nc(N)c(-c3nc(-c4ccc(Cl)cc4Cl)cs3)s2)cc(OC)c1OC | 3.8 | 31.3 |
| COc1cc(Nc2nc(N)c(-c3nc(-c4c(-c5ccccc5)noc4C)cs3)s2)cc(OC)c1OC | 13.6 | 17.9 |
| COc1cc(Nc2nc(N)c(-c3nc(-c4ccc5c(c4)OCCO5)cs3)s2)cc2c1OCCO2 | 5.4 | 32.9 |
| COc1cc(Nc2nc(N)c(-c3nc(-c4ccc(F)cc4)cs3)s2)cc(OC)c1OC | 35 | 48.3 |
| COc1cc(Nc2nc(N)c(-c3nc(-c4ccc(OC(=O)c5ccccc5)cc4)cs3)s2)cc(OC)c1OC | 14.6 | 22.3 |
| COc1cc(Nc2nc(N)c(-c3nc(-c4ccc[nH]4)cs3)s2)cc(OC)c1OC | 14.3 | 31.3 |
| COc1cc(Nc2nc(N)c(-c3nc(-c4ccc(F)c(F)c4)cs3)s2)cc(OC)c1OC | −5 | 16.5 |
| COc1cc(Nc2nc(N)c(-c3nc(-c4cccc([N+](=O)[O-])c4)cs3)s2)cc(OC)c1OC | 6.6 | 8.8 |

| SMILES | CDK2^c (CDK2/Cyclin A complex) | CHK1^b (FL-CHK1) |
| --- | --- | --- |
| COc1cc(Nc2nc(N)c(-c3nc(-c4ccc(Cl)c(Cl)c4)cs3)s2)cc(OC)c1OC | 7.3 | 12.1 |
| COc1cc(Nc2nc(N)c(-c3nc(-c4cc(C)c(O)c(C)c4)cs3)s2)cc(OC)c1OC | 28.4 | 27.9 |
| COc1cc(Nc2nc(N)c(-c3nc(-c4c(Cl)c(Cl)nc(Cl)c4Cl)cs3)s2)cc(OC)c1OC | 10.3 | 48.8 |
| COc1cc(Nc2nc(N)c(-c3nc(-c4ccc(C)cc4C)cs3)s2)cc(OC)c1OC | −1.2 | 12 |
| COc1cc(Nc2nc(N)c(-c3nc(-c4ccc(CC(=O)O)s4)cs3)s2)cc(OC)c1OC | 26.7 | 41.9 |
| COc1cc(Nc2nc(N)c(-c3nc(-c4cccc(OC(=O)c5ccccc5)c4)cs3)s2)cc(OC)c1OC | −12.3 | 23.9 |
| COc1cc(OC)c(-c2csc(-c3sc(Nc4cc(OC)c(OC)c(OC)c4)nc3N)n2)c(O)c1Cl | 11.8 | 56 |
| COc1cc(Nc2nc(N)c(-c3nc(-c4ccc5oc6ccccc6c5c4)cs3)s2)cc2c1OCCO2 | 19 | 34.1 |
| COc1cccc(-c2csc(-c3sc(Nc4cc(OC)c(OC)c(OC)c4)nc3N)n2)c1 | −0.4 | 21.2 |
| CCOC(=O)c1ccccc1-c1csc(-c2sc(Nc3cc(OC)c(OC)c(OC)c3)nc2N)n1 | 4.4 | 41.4 |
| COc1cc(Nc2nc(N)c(-c3nc(-c4c(C)c(C)c(C)c(C)c4C)cs3)s2)cc(OC)c1OC | 19.8 | 48.3 |
| COc1cc(Nc2nc(N)c(-c3nc(-c4cc(-c5ccccc5)no4)cs3)s2)cc(OC)c1OC | 11.2 | 2.7 |
| COc1cc(Nc2nc(N)c(-c3nc(-c4cc(F)c(C)c(Cl)c4)cs3)s2)cc(OC)c1OC | −7.5 | 30.9 |
| COc1cc(Nc2nc(N)c(-c3nc(-c4cc(-c5ccc(Cl)c(Cl)c5)no4)cs3)s2)cc(OC)c1OC | 17.5 | 0.9 |
| CCCCCc1ccc(-c2csc(-c3sc(Nc4cc(OC)c(OC)c(OC)c4)nc3N)n2)cc1 | 11.3 | 8.9 |
| COc1cc(Nc2nc(N)c(-c3nc(-c4ccccc4OC(C)=O)cs3)s2)cc(OC)c1OC | 1.6 | −7.4 |
| COc1cc(Nc2nc(N)c(-c3nc(-c4c(Cl)cc(C(F)(F)F)cc4Cl)cs3)s2)cc(OC)c1OC | −6 | 26.2 |
| CCN(CC)c1ccc(-c2csc(-c3sc(Nc4cc(OC)c(OC)c(OC)c4)nc3N)n2)cc1 | 6.3 | 1.3 |
| COc1cc(Nc2nc(N)c(-c3nc(-c4csc5ccccc45)cs3)s2)cc(OC)c1OC | 9.1 | 13.2 |
| COc1cc(Nc2nc(N)c(-c3nc(-c4cc(C(=O)C(Cl)(Cl)Cl)n(C)c4)cs3)s2)cc(OC)c1OC | 3.9 | 6.4 |
| COc1cc(Nc2nc(N)c(-c3nc(-c4cc5cc(Cl)ccc5o4)cs3)s2)cc2c1OCCO2 | −6 | 25.4 |
| COc1cc(Nc2nc(N)c(-c3nc(-c4cccc(Br)c4)cs3)s2)cc(OC)c1OC | 15.6 | 13.5 |
